From PMC5096734 (Chembiochem : a European journal of chemical biology, 2014)

Assays:
Test in all cases: fluorogenic hydrolysis, Michaelis-Menten
C. antarctica lipase = type: biochemical, Moesziomyces antarcticus; conditions: enzyme 10 μg/mL
B. subtilis esterase = type: biochemical, Bacillus subtilis; conditions: enzyme 0.5 μg/mL
PLE = type: biochemical, Sus scrofa
M. miehei lipase = molecular target: T1, M. miehei lipase (Rhizomucor miehei, UniProt P19515); type: biochemical; conditions: enzyme 10 μg/mL
T1 sequence (P19515 95-363): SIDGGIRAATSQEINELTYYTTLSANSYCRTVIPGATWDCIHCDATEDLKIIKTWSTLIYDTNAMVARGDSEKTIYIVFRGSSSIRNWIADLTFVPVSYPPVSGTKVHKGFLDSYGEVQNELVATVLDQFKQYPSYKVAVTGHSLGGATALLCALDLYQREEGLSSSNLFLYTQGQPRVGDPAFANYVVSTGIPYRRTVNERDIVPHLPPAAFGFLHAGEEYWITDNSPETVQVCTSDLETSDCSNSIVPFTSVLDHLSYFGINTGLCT

Row | Molecule | Km (C. antarctica lipase) | Km (B. subtilis esterase) | Km (PLE; enzyme 0.050 μg/mL) | Km (M. miehei lipase) | Km (PLE; enzyme 0.5 μg/mL)
1 | CC(=O)OCOc1ccc2nc3ccc(=O)cc-3oc2c1 [Res-AME] | 6.8 ± 0.4 µM | 19 ± 2 µM | 4.9 ± 0.7 µM |  | 
2 | DDAO-AME 1 | 9.5 ± 1.1 µM | 6.7 ± 0.5 µM |  | 4.4 ± 0.7 µM | 7.5 ± 0.8 µM
